Reference: PMC8710297, “Identification of potent SENP1 inhibitors that inactivate SENP1/JAK2/STAT signaling pathway and overcome platinum drug resistance in ovarian cancer” (Clinical and Translational Medicine, 2021)

Biological target: T1, SENP1(C603A) (Homo sapiens, UniProt Q9P0U3, C603A)
T1 construct: GST; made in house
T1 sequence (Q9P0U3 1-644 C603A): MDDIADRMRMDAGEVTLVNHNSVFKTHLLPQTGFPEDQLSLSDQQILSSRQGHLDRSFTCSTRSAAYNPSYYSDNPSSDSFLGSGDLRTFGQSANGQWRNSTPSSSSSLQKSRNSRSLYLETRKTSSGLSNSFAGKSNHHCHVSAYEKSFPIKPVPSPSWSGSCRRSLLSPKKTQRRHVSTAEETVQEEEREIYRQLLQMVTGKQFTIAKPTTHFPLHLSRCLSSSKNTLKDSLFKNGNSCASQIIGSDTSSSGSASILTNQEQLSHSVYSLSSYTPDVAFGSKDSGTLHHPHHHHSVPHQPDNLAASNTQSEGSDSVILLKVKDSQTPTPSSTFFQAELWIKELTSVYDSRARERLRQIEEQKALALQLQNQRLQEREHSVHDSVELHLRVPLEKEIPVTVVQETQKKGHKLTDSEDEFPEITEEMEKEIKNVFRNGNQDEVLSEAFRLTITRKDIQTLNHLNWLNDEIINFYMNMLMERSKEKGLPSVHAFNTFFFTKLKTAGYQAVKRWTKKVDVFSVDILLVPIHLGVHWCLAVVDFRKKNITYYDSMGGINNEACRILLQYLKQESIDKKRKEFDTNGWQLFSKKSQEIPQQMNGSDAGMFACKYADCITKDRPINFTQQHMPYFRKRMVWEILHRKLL
Test: In vitro thermal shift assay with mutant GST-SENP1(C603A)
Assay type: binding
Settings: compared to DMSO
Method: FIGURE 2 UA directly interacts with Sentrin‐specific protease 1 (SENP1). (A) Cellular thermal shift assay to examine the interaction of UA with SENP1. IGROV1 CR cells pretreated with MG132 (10 μM, 1 h) were incubated with DMSO or UA for 4 h before being shifted to indicated temperatures. SENP1 stability was analyzed by using Western blot against SENP1 antibody. Right panel, quantification of non‐denatured SENP1 fraction shown in the left panel. (B) Cell‐free thermal shift assay to examine interactions of UA with SENP1. Purified SENP1 proteins were incubated with DMSO or UA for 4 h before being shifted to the indicated temperatures. SENP1 stability was analyzed by using Western blot against SENP1 antibody. Right panel, quantification of non‐denatured SENP1 fraction shown in the left panel. (C) The predicted docking pose of UA (C: green; H: white; O: red) at the hydrophobic catalytic cleft of SENP1 (C: salmon; H: white; O: red; N: blue). Key amino acid residues were highlighted. […] Stability of SENP1(C603A) was analyzed by using Western blot against SENP1 antibody. […] Left; Ultra‐high performance liquid‐chromatography‐MS/MS analyses of associated UA in indicated samples, right; quantification of data shown in left (the binding affinity of UA with SENP1‐C603A was normalized as 1). […]
The qu anti ficatio n of immunohistochemical sta in ing wa s scored blindly at lea st by two independent obser vers. […]

thermal stability of purified mutant SENP1(C603A) | SMILES
not increased | CC1(C)CC[C@]2(C(=O)O)CC[C@]3(C)C(=CC[C@@H]4[C@@]5(C)CC[C@H](O[C@@H]6O[C@H](C(=O)O)[C@@H](O)[C@H](O[C@@H]7OC[C@@H](O)[C@H](O)[C@H]7O)[C@H]6O)C(C)(C)[C@@H]5CC[C@]43C)[C@@H]2C1 [Mc, Momordin Ιc]
not increased | C[C@H]1[C@H](C)CC[C@]2(C(=O)O)CC[C@]3(C)C(=CC[C@@H]4[C@@]5(C)CC[C@H](O)C(C)(C)[C@@H]5CC[C@]43C)[C@H]12 [UA, ursolic acid, reference compound]
